Several values for one entry are separate records, joined by “and”; a condition that tells them apart may be missing. Equal entries are not always repeated. Structures can show the parent of a compound that is named as a salt. Where two headings read alike, the source gives them in different places.
Legend:
[1] = system: NCI-Adr resistant; experiment: SRB cytotoxicity, P-glycoprotein expressing cells with and without verapamil; format: cell-based; settings: for IC50: Homo sapiens, NCI/ADR-RES, 72 h, SRB; for relative resistance, NCI-Adr resistant −/+ verapamil: individual experiments; for RR (relative resistance) NCI-Adr resistant −/+ verapamil: ratio of mean IC50
Experimental: (§1) In these experiments, the P-glycoprotein expressing NCI-Adr resistant subline (Vickers et al., 1989. Mol Endocrinology 3 (1):157-164) was used. […] Briefly, cells were plated in 96 well dishes 24 hours prior to compound addition. Where noted, they were exposed to verapamil for 4 hours prior to compound addition and then throughout the treatment period (72 hours). The assay was terminated with the addition of cold TCA to a final concentration of 10% and the plates were incubated for one hour at 4° C. The plates were then washed 5 times with water and 100 μl of a Sulforhodamine B solution (4%) was added to each well. The plate was then incubated for 10 minutes at room temperature before removal of unbound dye by washing with 1% acetic acid.

[2] = target: T1, c-Kit (Homo sapiens, UniProt P10721); experiment: c-Kit kinase assay (ProQinase); format: biochemical; settings: read-out: KIT Inhibition (IC50)
T1 construct: purchased ProQinase (printed 'ProQuinase', Freiburg, Germany)
Experimental: • c-kit can be assayed, for example, using the PanQinase Activity Assay or ProQuinase (Freiburg, Germany). Briefly:
Assay buffer-60 mM HEPES-NaOH, pH 7.5, 3 mM MgCl2, 3 mM MnCl2, 3 uM Na-orthovanadate, 1.2 mM DTT, 50 ug/ml PEG 20000, 1 uM [γ-^33P] ATP (approx. 5×10^5 cpm per well) • Reaction cocktail-20 ul assay buffer, 5 ul ATP, 5 ul test compound (in 10% DMSO), 10 ul substrate/10 ul enzyme=100 ng (pre-mixed). • The reaction cocktails are incubated at 30° C. for 80 minutes and terminated with addition of 50 ul 2% H3PO4. The plates are aspirated and washed two times with 200 ul H2O or 200 ul NaCl. Incorporation of radiolabelled substrate is determined with a microplate scintillation counter such as described in the Technical Note above.

[3] = target: panel of Ser/Thr kinases; experiment: Kinase panel, Ser/Thr kinases (average); format: biochemical; settings: average over panel; for IC50: read-out: average IC50 among non-CDK Ser/Thr kinases
[4] = target: T2, CDKs; experiment: Kinase panel, CDKs (average/range); format: biochemical
T2 construct: IC50 range over CDK1-7; other: 6 CDKs / CDK1-7; Cdk2/his-cyclin Eshort was expressed in Sf9 cells; Cdk2/cyclin A, cdk4/cyclin D1, and cdk6/cyclin D2 were expressed in Sf9 cells

[5] = system: CEM; experiment: SRB cytotoxicity, CEM parental cells; format: cell-based; settings: Homo sapiens, CCRF-CEM, 72 h
Experimental: as §1
The Camptothecin resistant CEM/C2 cells were derived from the T lymphoblastoid leukemia cell line CCRF/CEM by selection in the presence of Camptothecin in vitro (Kapoor et al., 1995. Oncology Research 7; 83-95, ATCC).
The effects of A37 and B16 were evaluated in the CCRF/CEM and CEM/C2 cells using the same SRB assay as described above, with 72-hour drug exposure.

[6] = target: T3, Yes (Homo sapiens, UniProt P07947); experiment: Yes kinase assay; format: biochemical
T3 construct: purchased Upstate 14-478
Experimental: • 1. 2.5× Reaction Buffer: 20 mM MOPS, 0.5 mM EDTA. • 2. Enzyme Dilution Buffer (EDB): 20 mM MOPS pH 7.0, 1 mM EDTA, 0.01% Brij-35, 5% glycerol, 0.1% β-mercaptoethanol, 1 mg/ml BSA. • 3. Yes, active: Dilute to 0.4 ng-4 ng/μl with EDB. Use 2.5 μl per assay point. • 4. Poly(Glu-4-Tyr) substrate: Prepare a 1 mg/ml stock solution. Use 2.5 μl per assay point for a final concentration of 0.1 mg/ml per assay point. • 5. [γ-^32P]ATP: Stock 1 mCi/100 μl (3000 Ci/mmol, obtained from PerkinElmer, Cat. # BLU002A). Make 10 μl aliquots (100 μCi/vial). Before starting the assay, dilute an aliquot to 1 μCi/μl with 90 μl of 75 mM MgCl2 and 500 μM cold ATP in 20 mM MOPS, pH 7.2, 25 mM β-glycerol phosphate, 5 mM EGTA, 1 mM sodium orthovanadate, 1 mM dithiothreitol.
• 1. Add 10 μl of 2.5× Reaction Buffer per assay. • 2. Add 2.5 μl of Poly(Glu-4-Tyr) substrate (0.1 mg/ml). • 3. Add 2.5 μl of Yes, active (1 ng-10 ng). • 4. Add […] of the diluted [γ-^32P]ATP solution. • 5. Incubate for 10 minutes at 30° C. • 6. Transfer a 20 μl aliquot onto the center of a 2 cm×2 cm P81 paper. • 7. Wash the assay squares three times for 5 minutes with 0.75% phosphoric acid. • 8. Wash the assay squares once for 5 minutes with acetone. • 9. Transfer the assay squares to vial and add 5 ml scintillation cocktail. • 10. Read in scintillation counter. Compare cpm of enzyme samples to cpm of control samples that contain background control.

[7] = target: Cdk3 (Homo sapiens, UniProt Q00526); experiment: Cdk3 inhibition; format: biochemical
Description: (§2) Further inhibition results for subject compounds of the invention against other CDKs and further kinases are shown in Table 5, Table II and described in Example 6.
(§3) Table 3, Table 4, Table 5 and Table II show the results obtained for inhibition of a broad range of such kinases for subject compounds of the invention.

[8] = target: panel of Tyr kinases; experiment: Kinase panel, Tyr kinases (average); format: biochemical; settings: average over panel; read-out: average IC50 among Tyr kinases
[9] = target: Cdk4 (Homo sapiens, UniProt P11802); experiment: Cdk4 inhibition; format: biochemical
Description: as §2, §3

[10] = target: Cdk5 (Homo sapiens, UniProt Q00535); experiment: Cdk5 inhibition; format: biochemical
Description: as §2, §3

[11] = system: DNA replication; experiment: Inhibition of DNA replication; format: cell-based; settings: 24 hour incubation
[12] = system: 1A9; experiment: SRB cytotoxicity, 1A9 parental cells; format: cell-based; settings: Homo sapiens, 72 h
Experimental: as §1
The tubulin mutated, paclitaxel-resistant human ovarian carcinoma cell line 1A9-PTX10 and its parental paclitaxel-sensitive cell line 1A9 were derived from the A2780 human ovarian carcinoma cell line (J Biol Chem (1997) 272, 17118-17124).

[13] = 6 CDKs / CDK1-7, read-out: average IC50 for CDKs
[14] = read-out: YES1 Inhibition (IC50)

T3 sequence (P07947 whole entry): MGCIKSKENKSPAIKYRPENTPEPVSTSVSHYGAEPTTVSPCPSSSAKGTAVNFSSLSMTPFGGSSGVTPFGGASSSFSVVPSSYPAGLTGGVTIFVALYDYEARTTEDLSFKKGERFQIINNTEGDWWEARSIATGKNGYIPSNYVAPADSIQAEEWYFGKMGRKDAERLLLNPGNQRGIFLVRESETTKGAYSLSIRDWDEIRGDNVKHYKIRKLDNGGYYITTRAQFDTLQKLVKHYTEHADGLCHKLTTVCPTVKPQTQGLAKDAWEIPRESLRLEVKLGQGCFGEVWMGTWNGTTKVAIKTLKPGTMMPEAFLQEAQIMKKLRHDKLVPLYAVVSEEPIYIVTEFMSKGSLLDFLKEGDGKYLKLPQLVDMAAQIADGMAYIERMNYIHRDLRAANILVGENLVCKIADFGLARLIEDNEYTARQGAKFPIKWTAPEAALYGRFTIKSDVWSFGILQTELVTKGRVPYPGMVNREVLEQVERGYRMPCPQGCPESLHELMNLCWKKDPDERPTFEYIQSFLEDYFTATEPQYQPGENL
T1 sequence (P10721 26-976): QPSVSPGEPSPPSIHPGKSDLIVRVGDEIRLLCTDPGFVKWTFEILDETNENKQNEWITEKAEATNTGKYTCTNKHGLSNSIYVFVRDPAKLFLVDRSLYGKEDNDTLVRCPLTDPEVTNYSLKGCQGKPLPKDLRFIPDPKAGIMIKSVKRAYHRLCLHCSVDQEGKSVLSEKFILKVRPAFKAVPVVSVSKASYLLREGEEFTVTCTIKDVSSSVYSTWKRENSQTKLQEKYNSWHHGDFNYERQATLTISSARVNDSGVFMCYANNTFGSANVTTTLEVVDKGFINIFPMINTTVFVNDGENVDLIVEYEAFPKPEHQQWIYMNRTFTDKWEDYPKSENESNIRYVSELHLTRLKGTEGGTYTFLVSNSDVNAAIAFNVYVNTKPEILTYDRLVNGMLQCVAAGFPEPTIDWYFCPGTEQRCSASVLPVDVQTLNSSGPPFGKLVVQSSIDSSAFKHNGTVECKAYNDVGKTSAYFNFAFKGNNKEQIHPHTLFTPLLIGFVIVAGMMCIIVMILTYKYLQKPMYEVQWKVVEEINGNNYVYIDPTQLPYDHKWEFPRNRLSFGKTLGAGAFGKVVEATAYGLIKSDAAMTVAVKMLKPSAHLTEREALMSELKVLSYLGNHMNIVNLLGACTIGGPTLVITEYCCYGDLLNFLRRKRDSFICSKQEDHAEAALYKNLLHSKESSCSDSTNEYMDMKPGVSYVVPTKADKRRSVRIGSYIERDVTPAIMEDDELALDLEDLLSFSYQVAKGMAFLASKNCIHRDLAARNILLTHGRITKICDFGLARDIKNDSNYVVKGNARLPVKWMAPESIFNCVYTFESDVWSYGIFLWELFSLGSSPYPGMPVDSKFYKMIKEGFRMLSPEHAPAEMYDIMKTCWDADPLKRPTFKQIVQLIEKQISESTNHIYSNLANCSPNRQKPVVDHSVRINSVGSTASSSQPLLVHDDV
Chain of Cdk4 (P11802 whole entry, species assumed): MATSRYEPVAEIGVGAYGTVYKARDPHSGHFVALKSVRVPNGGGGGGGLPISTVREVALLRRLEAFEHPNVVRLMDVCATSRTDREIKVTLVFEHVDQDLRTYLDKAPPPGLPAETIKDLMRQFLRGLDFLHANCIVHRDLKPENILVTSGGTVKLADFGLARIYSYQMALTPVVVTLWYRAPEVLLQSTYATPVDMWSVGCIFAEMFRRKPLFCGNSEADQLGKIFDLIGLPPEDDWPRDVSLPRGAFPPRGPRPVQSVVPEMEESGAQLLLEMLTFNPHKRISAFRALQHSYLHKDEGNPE
Chain of Cdk4 (P24385 whole entry partner, species assumed): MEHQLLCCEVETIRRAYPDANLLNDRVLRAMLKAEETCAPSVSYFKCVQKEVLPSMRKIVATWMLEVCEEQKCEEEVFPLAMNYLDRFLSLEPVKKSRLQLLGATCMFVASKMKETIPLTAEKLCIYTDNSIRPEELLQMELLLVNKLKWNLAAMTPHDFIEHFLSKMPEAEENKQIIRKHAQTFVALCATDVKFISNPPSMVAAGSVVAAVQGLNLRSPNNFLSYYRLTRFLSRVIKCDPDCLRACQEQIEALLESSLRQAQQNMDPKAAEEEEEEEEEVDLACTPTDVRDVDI
Chain of Cdk3 (Q00526 whole entry, species assumed): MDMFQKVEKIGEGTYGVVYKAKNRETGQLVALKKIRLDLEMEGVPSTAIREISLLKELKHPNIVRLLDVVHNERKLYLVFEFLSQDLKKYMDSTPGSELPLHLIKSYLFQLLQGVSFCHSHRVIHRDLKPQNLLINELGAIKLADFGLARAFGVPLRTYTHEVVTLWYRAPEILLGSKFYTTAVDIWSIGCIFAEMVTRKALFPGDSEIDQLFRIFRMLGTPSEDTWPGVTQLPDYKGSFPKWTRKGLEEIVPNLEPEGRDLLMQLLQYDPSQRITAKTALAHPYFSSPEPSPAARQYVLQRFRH
Chain of Cdk3 (P24864 whole entry partner, species assumed): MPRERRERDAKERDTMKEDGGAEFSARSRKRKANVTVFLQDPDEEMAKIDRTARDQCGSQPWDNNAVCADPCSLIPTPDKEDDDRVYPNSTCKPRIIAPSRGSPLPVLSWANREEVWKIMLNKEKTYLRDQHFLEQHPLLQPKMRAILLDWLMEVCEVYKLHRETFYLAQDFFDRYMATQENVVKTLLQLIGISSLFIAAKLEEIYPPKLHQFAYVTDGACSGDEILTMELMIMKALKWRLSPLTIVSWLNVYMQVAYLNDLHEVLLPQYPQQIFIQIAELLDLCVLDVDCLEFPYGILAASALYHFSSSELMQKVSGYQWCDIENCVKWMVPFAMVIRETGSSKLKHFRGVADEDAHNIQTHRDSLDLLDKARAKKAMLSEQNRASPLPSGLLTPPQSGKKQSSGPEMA
Chain of Cdk5 (Q00535 whole entry, species assumed): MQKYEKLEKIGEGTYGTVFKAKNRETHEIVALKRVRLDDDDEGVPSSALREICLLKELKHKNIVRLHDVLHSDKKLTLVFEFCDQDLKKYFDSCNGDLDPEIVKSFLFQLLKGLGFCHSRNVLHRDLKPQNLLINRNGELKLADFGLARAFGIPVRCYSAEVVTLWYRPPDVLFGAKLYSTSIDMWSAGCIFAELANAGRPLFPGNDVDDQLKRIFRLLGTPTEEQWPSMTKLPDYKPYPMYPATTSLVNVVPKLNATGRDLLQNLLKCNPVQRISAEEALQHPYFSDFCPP
Chain of Cdk5 (Q15078 whole entry partner, species assumed): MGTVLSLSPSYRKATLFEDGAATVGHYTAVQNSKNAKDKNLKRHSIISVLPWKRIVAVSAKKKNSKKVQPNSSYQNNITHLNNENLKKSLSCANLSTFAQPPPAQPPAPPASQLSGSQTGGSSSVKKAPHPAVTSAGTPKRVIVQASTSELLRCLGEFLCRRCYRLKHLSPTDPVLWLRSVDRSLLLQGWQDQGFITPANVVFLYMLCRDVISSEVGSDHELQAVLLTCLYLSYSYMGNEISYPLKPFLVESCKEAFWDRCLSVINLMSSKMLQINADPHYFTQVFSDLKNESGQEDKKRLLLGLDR

COCCN1CCN(Cc2ccc(-c3n[nH]c4c3C(=O)c3c(NC(=O)NN5CCOCC5)cccc3-4)cc2)CC1 [Compound B16, N-[3-(4-{[4-(2-methoxyethyl)piperazinyl]methyl}phenyl)-4-oxoindeno[2,3-d]pyrazol-5-yl](morpholin-4-ylamino)carboxamide dihydrochloride]
IC50 ([1]; verapamil 12.5 μg/ml): 80 nM | IC50 ([1]; without verapamil): 1870 nM | relative resistance, NCI-Adr resistant −/+ verapamil [1]: about 25 fold | RR (relative resistance) NCI-Adr resistant −/+ verapamil [1]: 23.4 | IC50 [2]: < 500 nM | IC50 [3]: ~50 nM | IC50 [4, 13]: ~17 nM | IC50 [5]: 25 nM | IC50 ([6]; kinase panel, 10 μM ATP, read-out: Yes IC50): < 100 nM | IC50 [6, 14]: < 50 nM | IC50 [7]: < 5 nM | IC50 [8]: ~55 nM | IC50 [9]: > 100 nM | IC50 [10]: < 5 nM | IC50 [11]: 10 nM | IC50 [12]: 10.7 nM

CC(C)N1CCN(C(=O)COc2ccc(-c3n[nH]c4c3C(=O)c3c(NC(=O)NN5CCOCC5)cccc3-4)cc2)CC1 [Compound A37]
IC50 ([1]; verapamil 12.5 μg/ml): 135 nM | IC50 ([1]; without verapamil): 3430 nM | relative resistance, NCI-Adr resistant −/+ verapamil [1]: about 25 fold | RR (relative resistance) NCI-Adr resistant −/+ verapamil [1]: 25.4 | IC50 [2]: < 500 nM | average IC50 among non-CDK Ser/Thr kinases [3]: about 29 nM | IC50 [3]: 44 nM | IC50 [4, 13]: ~42 nM and 42 nM | IC50 ([4]; read-out: IC50 range over CDK1-7): 3 to 155 nM | IC50 [5]: 21.3 nM | IC50 [6, 14]: < 50 nM | IC50 [7]: < 5 nM | IC50 [8]: ~37 nM and 35.5 nM | IC50 [9]: < 50 nM | IC50 [10]: < 5 nM | IC50 [11]: 16 nM | IC50 [12]: 13.3 nM
